Drawing on article PMC7411887, “New Paracyclophanylthiazoles with Anti-Leukemia Activity: Design, Synthesis, Molecular Docking, and Mechanistic Studies” (Molecules, 2020), this text covers inhibition, melting point and IC50 for six compounds.

Where “and” joins values, the source holds several entries; their conditions need not be identical. Equal values may be shown once.

Series [1] has as its system 786-0. The experiment in a line: NCI single-dose screen (SRB). The format is cell-based. Particulars: Homo sapiens; Renal Cancer 786-0; 10^−5 M; read-out: Growth inhibition percentage. In a few lines: (§1)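 Compounds were applied at a single concentration of 10^−5 M and cells were incubated for 48 h. Growth was measured spectrophotometrically with the protein-binding dye SRB and expressed as percentage growth of treated versus untreated control cells; experiments were repeated three times.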

Series [2] relates to A498. Description: NCI single-dose screen (SRB). The format is cell-based. Particulars: Homo sapiens; Renal Cancer A498; 10^−5 M; read-out: Growth inhibition percentage. In a few lines: as §1
Series [3] relates to CAKI-1. Description: NCI single-dose screen (SRB). The format is cell-based. Particulars: Homo sapiens; Renal Cancer CAKI-1; 10^−5 M; read-out: Growth inhibition percentage. In a few lines: as §1
The test system of series [4] is HS 578T. The experiment in a line: NCI single-dose screen (SRB). The format is cell-based. The settings on record: Homo sapiens; Breast Cancer HS 578T; 10^−5 M; read-out: Growth inhibition percentage. The essentials: as §1
Series [5] concerns NCI-H226. The experiment in a line: NCI single-dose screen (SRB). Particulars: Homo sapiens; Non-Small-Cell Lung Cancer NCI-H226; 10^−5 M; read-out: Growth inhibition percentage. The format is cell-based. In a few lines: as §1
Series [6] concerns the target T1, β-tubulin (Homo sapiens, UniProt P07437).
T1 construct: endogenous in cells; host or cells: leukemia SR cell line
The experiment in a line: Tubulin polymerization inhibition (ELISA for TUBb, SR cell line). The format is cell-based. The settings on record: IC50 ± SEM. Here is the method:
The in vitro kinetics of microtubule assembly was measured using an ELISA kit for TUBb (Cloud-Clone. Corp.) on the leukemia SR cell line. The compounds tested were 3a–f and colchicine. Briefly, growing cells from the SR cell line were trypsinized, counted, and seeded at the appropriate densities into 96-well microtiter plates.
4. Tubulin polymerization inhibitory activity […]
bind the biotin labeled antibody. […]
spectrophotometrically at a wavelength of 450 nm ± 10 nm. The decrease of color intensity was measured as a sign for tubulin inhibition. The results were calculated as the concentration of TUBb available for antibody reaction, and the percent inhibition of TUBb was calculated for each sample as a percent of control. In vitro kinetics of microtubule assembly was measured using ELISA kit for TUBb (Cloud-Clone. Corp.) on SR cell line. Briefly, growing cells from Leukemia SR cell lines were trypsinized, counted and seeded at the appropriate densities into 96-well microtiter plates. Cells then were incubated in a humidified atmosphere at oC for 24 h. The standards, the tested compounds, and the control colchicine were diluted to designated concentrations. On the 96-well microtiter plates standard or sample was added to each well in […] and incubated at oC for 2 h. The solution was aspirated, and […] of prepared detection reagent A was added to each well. Incubation was done at oC for 2 h. After washing […] of prepared Detection Reagent B was added and incubation was continued at oC for 30 min. Five washings were done, then […] of 3,30,5,50-tetramethylbenzidine (TMB) substrate solution was added and incubated at oC for 15-25 min. Stop solution was added in […].
Optical density (O.D.) was measured at 450 nm using micro-plate reader (Spectromax Plus 96 well plate spectrophotometer). […]
the treated cells compared to that of the untreated control cells.
5. Multidrug resistance Assay
Before adding to wells, equilibrate the SABC working solution and TMB substrate for at least 30 […]
When diluting samples and reagents, they must be mixed completely and evenly. It is recommended plotting a standard curve for each test.

T1 sequence (P07437 whole entry): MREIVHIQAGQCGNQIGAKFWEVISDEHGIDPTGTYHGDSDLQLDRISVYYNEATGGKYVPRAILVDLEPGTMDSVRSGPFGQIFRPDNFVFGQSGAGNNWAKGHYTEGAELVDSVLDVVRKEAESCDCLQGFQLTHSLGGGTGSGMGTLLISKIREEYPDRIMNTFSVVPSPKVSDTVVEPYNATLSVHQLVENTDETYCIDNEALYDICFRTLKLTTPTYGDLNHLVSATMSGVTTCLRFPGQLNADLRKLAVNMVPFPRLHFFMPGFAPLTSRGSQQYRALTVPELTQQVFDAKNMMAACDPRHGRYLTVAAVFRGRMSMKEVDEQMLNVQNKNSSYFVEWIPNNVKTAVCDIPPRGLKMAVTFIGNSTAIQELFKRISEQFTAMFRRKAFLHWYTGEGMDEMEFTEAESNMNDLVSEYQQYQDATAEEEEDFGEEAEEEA
T1 sequence (P68363 whole entry partner): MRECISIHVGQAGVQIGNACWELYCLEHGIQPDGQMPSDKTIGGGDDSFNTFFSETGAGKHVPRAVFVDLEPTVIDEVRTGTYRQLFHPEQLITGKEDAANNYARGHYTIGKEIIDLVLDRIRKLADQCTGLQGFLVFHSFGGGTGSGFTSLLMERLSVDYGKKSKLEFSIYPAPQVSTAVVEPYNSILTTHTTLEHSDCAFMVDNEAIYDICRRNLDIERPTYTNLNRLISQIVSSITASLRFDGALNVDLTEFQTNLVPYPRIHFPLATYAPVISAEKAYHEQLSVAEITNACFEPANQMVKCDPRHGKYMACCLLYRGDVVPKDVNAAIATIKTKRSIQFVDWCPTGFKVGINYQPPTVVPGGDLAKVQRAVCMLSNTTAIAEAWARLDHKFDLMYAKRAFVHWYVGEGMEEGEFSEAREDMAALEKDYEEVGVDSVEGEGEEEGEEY

The compound `COC(=O)/C=C1/S/C(=N/NC(=O)c2cc3ccc2CCc2ccc(cc2)CC3)N(C2CC2)C1=O` [Compound 3f] registered a melting point of 180 to 182 °C. The inhibition at 10 µM in series [1] worked out at 14.6%. Besides, the inhibition at 10 µM in series [2] was 3.39%. Besides, the inhibition at 10 µM in series [3] stood at 24.5%. For the same compound, the inhibition at 10 µM in series [4] worked out at 5.01%. For the same compound, the inhibition at 10 µM in series [5] worked out at 9.41%.
For the compound `COC(=O)C=C1SC(=Nc2cccnc2)N(NC(=O)c2cc3ccc2CCc2ccc(cc2)CC3)C1=O` [Compound 3c, Methyl (E)-2-((E)-3-[2.2]paracyclophanyl)amido-4-oxo-2-(pyridin-3-ylimino)-thiazolidin-5-ylidene)acetate], the melting point was 262 to 264 °C (dec.). For the same compound, the inhibition at 10 µM in series [1] was 8.52%. The inhibition at 10 µM in series [2] was 3.59%. The inhibition at 10 µM in series [3] came out at 4.78%. For the same compound, the inhibition at 10 µM in series [4] was found to be 0%. The inhibition at 10 µM in series [5] is 7.48%. Also, the half-inhibitory concentration (IC50) in series [6] is 8.38 µM and 8.28 µM.
On to `COC(=O)C=C1SC(=NNC(=O)c2cc3ccc2CCc2ccc(cc2)CC3)N(c2ccccc2)C1=O` [Compound 3a], for which the inhibition at 10 µM in series [1] amounted to 100%; in series [2], 50.8%; in series [3] it was 94.7%; in series [4], 22.1%; in series [5] it was 26.2%. In series [6], this compound returned a half-maximal inhibitory concentration (IC50) of 4.97 ± 0.11 µM.
With `COC(=O)C=C1SC(=NNC(=O)c2cc3ccc2CCc2ccc(cc2)CC3)N(Cc2ccccc2)C1=O` [Compound 3b], the melting point was in the range of 175 to 177 °C. Besides, in series [1], the inhibition at 10 µM worked out at 50.5%. In series [2], the inhibition at 10 µM stood at 53.9%. Further, in series [3], the inhibition at 10 µM was determined as 84.4%. Also, the inhibition at 10 µM in series [4] is 12.6%. The inhibition at 10 µM in series [5] worked out at 35.2%. In series [6], half-maximal inhibition (IC50) required 8.38 ± 0.18 µM.
`CCN1C(=O)C(=CC(=O)OC)SC1=NNC(=O)c1cc2ccc1CCc1ccc(cc1)CC2` [Compound 3e] registered a melting point of 220 to 222 °C. Further, the inhibition at 10 µM in series [1] was 9.45%. Besides, the inhibition at 10 µM in series [2] came out at 6.63%. For the same compound, in series [3], the inhibition at 10 µM stood at 0%. The inhibition at 10 µM in series [4] amounted to 1.03%. Besides, the inhibition at 10 µM in series [5] was found to be 7.31%. For the same compound, 6.61 ± 0.14 µM corresponded to half-maximal inhibition in series [6] (IC50).
On to `C=CCN1C(=O)C(=CC(=O)OC)SC1=NNC(=O)c1cc2ccc1CCc1ccc(cc1)CC2` [Compound 3d], for which the melting point was in the range of 241 to 243 °C. Further, in series [1], the inhibition at 10 µM was determined as 8.77%. In addition, the inhibition at 10 µM in series [2] was 12.1%. Besides, the inhibition at 10 µM in series [3] is 5.23%. Besides, the inhibition at 10 µM in series [4] is 6.41%. Also, the inhibition at 10 µM in series [5] amounted to 12.4%. Also, the IC50 in series [6] was 14.8 ± 0.32 µM.
